Several values for one entry are separate records, joined by “and”; a condition that tells them apart may be missing. Equal values may be shown once.
What was measured:
PKCα/β = PKCα/β translocation in ETFR cells; format: cell-based, rat; conditions: 100 nM fMLF, 10 μg/ml CaG or PMA 500 nM, 37° C. 10 min
Protocol: (§1) ETFR cells were seeded on coverslips and cultured overnight in DMEM containing 1% FCS at 37° C. After further culture in FCS-free DMEM for 3 h, cells were treated with stimulants for indicated time periods at 37° C. and were then fixed in 4% paraformaldehyde for 5 min at room temperature. The cells were permeabilized with 0.2% Tween 20 for 30 min at 4° C. and the reaction was blocked with 5% goat normal serum for 15 min at room temperature. The rabbit anti-PKCα/β, δ, and ξ, antibodies (1:1000 in DPBS) were applied separately for 1 h at room temperature. After three rinses with DPBS, the cells were stained with FITC-labeled goat anti-rabbit secondary antibody (PharMingen, 1:1000 in DPBS) for 1 h at room temperature. The coverslips were mounted with an anti-fade, water-based mounting medium with Propidium Iodide (PI) (Vector Lab, Burlingamem, Calif.) and analyzed under a laser scanning confocal fluorescence microscope (Zeiss LSM510 NLO Meta, Jena, Germany). Excitation wavelengths 488 (for FITC) and 568 (for PI) nm were used to generate fluorescence emission in green and red, respectively.

PKCδ = PKCδ translocation in ETFR cells; format: cell-based, rat; conditions: 100 nM fMLF, 10 μg/ml CaG or PMA 500 nM, 37° C. 10 min
Protocol: as §1, with “The cells were permeabilized with 0.2% Tween 20 for 30 min at 4° C. and the reaction was blocked with 5% goat normal serum for 15 min at room temperature.” left out, “Germany).” for “Germany). Excitation wavelengths 488 (for FITC) and 568 (for PI) nm were used to generate fluorescence emission in green and red, respectively.”

monocytes = assay: Chemotaxis assay, monocytes; format: cell-based, human
Protocol: Human PBMC were isolated from leukopacks obtained through the courtesy of Transfusion Medicine Department, National Institutes of Health Clinical Center (Bethesda, Md.) by Ficoll-Hypaque density gradient centrifugation. Monocytes were purified from human PBMC by Percoll gradient to yield>90% pure preparations. […] H. Ali and R. Snyderman, Duke University (Durham, N.C.) and maintained in the presence of 0.8 mg/ml geneticin (G418, Life Technologies, Rockville, Md.) in DMEM supplemented with 10% FCS. B. Chemotaxis assay Migration of phagocytes and ETFR cells was assessed using a 48-well microchemotaxis chamber (Neuroprobe, Cabin John, Md.) as previously described (Hu et al. (2001) J Leukoc Biol 70 15512). Briefly, different concentrations of stimulants were placed in the wells of the lower compartment of the chamber, and 50 μl cells (1.5×10^6 cells/ml for monocyte and neutrophil, 1×10^6 ETFR cells/ml) were added to the wells of the upper compartment. The lower and upper compartments were separated by either a 5-μm (for monocyte) or a 10-μm pore size, collagen-coated (for ETFR cells) polycarbonate filter (Osmonics, Livermore, Calif.). After incubation at 37° C. in humidified air with 5% CO2 (60 min for neutrophils, 90 min for monocytes, 4.5 h for ETFR cells), the filter was removed and stained, and the cells migrating across the filter were counted with light microscopy. The results are presented as the mean number of cells (±SD) in three high power fields (HPFs). […] After thorough washing with cold medium (RPMI 1640, 1% BSA), the cells were resuspended and assayed. To measure the effect of various signaling inhibitors, unless otherwise indicated, the cells were pre-incubated at 37° C. for 60 min with the inhibitors, and were then added to the upper wells of the chemotaxis chamber.

ERK1/2 = assay: Phosphorylation of ERK1/2 in ETFR cells (Western blot); format: cell-based, rat
Protocol: ETFR cells were plated in Petri dishes and cultured in DMEM at 37° C. in humidified 5% CO2 atmosphere for 48 h. After further culture in serum-free DMEM overnight, the cells were treated with stimulants for indicated time periods. The reaction was stopped by adding 1 ml ice-cold PBS, and the cells were lysed in 1×SDS lysis buffer (62.5 mM Tris-HCl, 2% w/v SDS, 10% glycerol, 50 mM DTT, pH 6.8) and harvested into tubes for sonication. Proteins (50 μg for each sample) were resolved by SDS-PAGE and transferred onto nitrocellulose membranes (Bio-Rad, Hercules, Calif.). The membranes were blocked for 2 h at room temperature in 3% non-fat milk prepared in Tris-buffered saline-T (10 mM Tris-HCl, pH 7.5, 150 mM NaCl, 0.1% Tween 20) and probed with anti-p-ERK1/2, p-p38 MAPK, or p-Akt (1:1000) at room temperature for 1-2 h or at 4° C. overnight. The membranes were then washed and incubated with horseradish peroxidase-conjugated secondary antibodies diluted in Tris-buffered saline-T for 1 h at room temperature. The immune complexes on the membranes were visualized using ECL reagents. Total ERK1/2, p38 MAPK, and Akt were visualized by stripping the same membrane and probing with antibodies against total ERK1/2, p38 MAPK, and Akt.

PKCζ = PKCζ translocation in ETFR cells (confocal microscopy); format: cell-based, rat; conditions: 100 nM fMLF, 10 μg/ml CaG or PMA 500 nM, 37° C. 10 min
Protocol: as §1

For “CaG: Cathepsin G, serine protease purified from neutrophil granules, purchased from Athens Research & Technology”, the “translocation of PKCα/β” value (PKCα/β) was “did not induce translocation of PKCα and β”, the “translocation of PKCδ” value (PKCδ) was “did not induce translocation of PKCδ” and the “concentration of maximal activity in monocyte migration” value (monocytes; human monocytes) was 5 μg/ml and 200 nM. For the same substance, the “monocyte migration induced by stimulant” value (monocytes; human monocytes) was “dose-dependently induced monocyte migration”, the “concentration range potently chemotactic” value (monocytes; monocytes) was 4 to 400 nM and the “attenuation of monocyte chemotaxis to fMLF after preincubation” value (monocytes; preincubated with CaG 10 μg/ml 30 min 37° C., low concentrations of fMLF) was “able to attenuate monocyte chemotaxis to low concentrations of fMLF”. For the same substance, the “time to activation of ERK1/2” value (ERK1/2; ETFR cells) was 1 to 5 min, the “delay to reach maximal activity (MAPK phosphorylation) as compared with fMLF” value (ERK1/2; FPR transfected cells) was 10 to 15 min and the “translocation of PKCζ” value (PKCζ) was “a substantial proportion of PKCξ translocated to the cell membrane region”.
